Test system: human retinal microvascular endothelial cells
Assay: Angiogenesis-inhibiting signals (mRNA quantification by real-time quantitative PCR)
Assay type: cell-based
Conditions: various concentrations; for angiogenesis-inhibiting signals (changes of gene expression levels): four hours incubation, FIG. 6; for mRNA amount of c-myc, integrin-αv, integrin-β3: FIG. 6 legend
Protocol: Human retinal microvascular endothelial cells were rendered to grow exponentially in the presence of serum/growth factors/angiogenesis-promoting factors, and various concentrations of rifampicin, rifamycin SV and 3-formyl rifamycin were added. After four hours-incubation, RNA was extracted and subjected to mRNA quantification of various genes using aforementioned LightCycler-based highly sensitive real-time quantitative PCR. A, B and C represent the quantification results of c-myc gene; D, E and F represent those of integrin-αv gene; G, H and I represent those of integrin-β3 gene. Further, A, D and G indicate the changes of mRNA levels after adding rifampicin; B, E and H indicate those after adding rifamycin SV; C, F and I indicate those after adding 3-formyl rifamycin.

CO[C@H]1/C=C/O[C@@]2(C)Oc3c(C)c(O)c4c(O)c(c(C=O)c(O)c4c3C2=O)NC(=O)/C(C)=C\C=C\[C@H](C)[C@H](O)[C@@H](C)[C@@H](O)[C@@H](C)[C@H](OC(C)=O)[C@@H]1C [3-formyl rifamycin]
angiogenesis-inhibiting signals (changes of gene expression levels): exhibit similar activity potently | mRNA amount of c-myc, integrin-αv, integrin-β3: inhibited in a concentration-dependent manner

CO[C@H]1/C=C/O[C@@]2(C)Oc3c(C)c([O-])c4c(O)c(cc(O)c4c3C2=O)NC(=O)/C(C)=C\C=C\[C@H](C)[C@H](O)[C@@H](C)[C@@H](O)[C@@H](C)[C@H](OC(C)=O)[C@@H]1C.[Na+] [rifamycin SV]
angiogenesis-inhibiting signals (changes of gene expression levels): exhibit similar activity potently | mRNA amount of c-myc, integrin-αv, integrin-β3: inhibited in a concentration-dependent manner

Source: US9333194B2, “Use of ansamycin antibiotics and method of screening novel angiogenesis inhibitor” (Japan Science & Technology Agency, priority 2002, dated 2016)
